In patent US6841236B2, “Articles containing thioxanthone dyes” (3M Innovative Properties Co., priority 2001, dated 2005):

Legend:
Assay type in all cases: physicochemical
[1] = Daytime color of polycarbonate sheet with dye laminated to retroreflective sheeting (Labsphere BFC-450 Bispectral Colorimeter); conditions: 0.2% dye in polycarbonate FCR-2407, 0.1 mm sheet on Scotchlite 3970; CIE D65, CIE 1931 observer
Procedure: Examples 8-10 were prepared with the compounds of Examples 1 and 2 and 6-methoxy-14H-anthra(2,1,9-mna)thioxanthene-14-one at a 0.2% loading in polycarbonate FCR-2407. Extrusion conditions for the polycarbonate were 260-304° C. using a single screw extruder. Optically transparent pressure sensitive adhesive with a liner on both sides of the adhesive was laminated to the 0.1 mm thick sheet of polycarbonate by removing one of the liners from the adhesive and then applying the exposed adhesive to the polycarbonate sheet with two passes of a roller using hand pressure.
The remaining liner was removed from the adhesive and the polycarbonate sheet construction was laminated to retroreflective sheeting commercially available from 3M under the trade designation “Scotchlite Diamond Grade LDP Reflective Sheeting Series 3970” (Scotchlite 3970) with two passes of a roller using hand pressure. The Scotchlite 3970 reflective sheeting had previously been laminated to a 7 cm wide by 28 cm long aluminum panel (6061T6 alloy with etch and desmut surface from Q Panel Company, Cleveland, Ohio) with two passes of a roller with hand pressure.
(§1) The daytime color of each article was measured using a Labsphere BFC-450 Bispectral Colorimeter commercially available from Labsphere, North Sutton, N.H. The daytime chromaticity (x,y), total luminance factor (YT), and fluorescence luminance factor (YF; which is a measure of the fluorescent properties of the article) calculated for the CIE D65 and the CIE 1931 observer are provided in TABLE II

[2] = Daytime color and visual inspection of PMMA film with dye laminated to retroreflective sheeting
Procedure: as §1
Examples 11-16 were prepared with the compounds of Examples 1-2 and 6-methoxy-14H-anthra(2,1,9-mna)thioxanthene-14-one in polymethylmethacrylate (PMMA) resin at the wt.-% of dye shown in TABLE III. The samples were prepared by dry blending the dye with a medium impact modified grade PMMA resin commercially available from Ineos Acrylics Inc., Cordova, Tenn. under the trade designation “CP923”. Films of 0.1 mm thickness were extruded through a single screw extruder with three heating zones set at 249° C. to 260° C. […] Examples 11 and 12 and Examples 13 and 14 had equal molar loadings of dye.
The resultant films were laminated to Scotchlite 3970 reflective sheeting on aluminum panels as described in Examples 8-10. Color values were measured as described in Examples 8-10 and the results set out in TABLE III.

[3] = Daytime color of vinyl film with dye laminated to retroreflective sheeting; conditions: 0.18 g dye in 65 g GEON 178 / Elvacite 2013 mixture, 0.04 mm vinyl film on Scotchlite 3970
Procedure: as §1
Examples 22-23 were prepared by independently stirring 0.18 g of the dye of Examples 1 and 3 into 65 g of a mixture composed of 42 wt.-% DIBK, xylol, and mineral spirit (1.7:2.3:1), 44 wt.-% of a polyvinyl chloride dispersion commercially available from PolyOne, Cleveland, Ohio under the trade designation “GEON 178” and 14 wt.-% of a polyacrylate commercially available from Ineos Acrylics Inc., Cordova, Tenn. under the trade designation “Elvacite 2013”. Each mixture was allowed to stand at room temperature for one hour prior to knife coating onto a pre-sized paper substrate. Each coated substrate was placed in a 150° F. (66° C.) oven for 1.5 minutes, followed by a 300° F. (149° C.) oven for 1.0 minute and a 400° F. (204° C.) oven for 0.75 minute, resulting in a 0.04 mm thick fluorescent colored vinyl film.
The resultant films were laminated to Scotchlite 3970 reflective sheeting on aluminum panels as described in Examples 8-10. Color values were measured as described in Examples 8-10 and the results set out in TABLE VI.

[4] = Daytime color of polyurethane film with dye laminated to retroreflective sheeting; conditions: dye 0.2 wt.-% in aliphatic polyester polyurethane PN03.214, 0.1 mm film on Scotchlite 3970
Procedure: as §1
Examples 24-27 were prepared as described in Examples 8-10, except that the dyes of Examples 1, 3, 6-(2-hydroxy-ethoxy)-14H-anthra(2,1,9-mna)thioxanthene-14-one (described by Carlini et al.) and 6-methoxy-14H-anthra(2,1,9-mna)thioxanthene-14-one were independently used at 0.2 wt.-% loading in an aliphatic polyester polyurethane resin commercially available from Huntsman Polyurethanes, West Deptford, N.J., USA under the trade designation “PN03.214”. The extrusion conditions for the polyurethane were 154-191° C. and the resultant film thickness was 0.1 mm.
The resultant films were laminated to Scotchlite 3970 reflective sheeting on aluminum panels as described in Examples 8-10. Color values were measured as described in Examples 8-10 and the results set out in TABLE VII.

[5] = Daytime color of Paraloid B66 dye coating on retroreflective sheeting
Procedure: as §1
Examples 19-21 were prepared by independently stirring 0.10 parts of the dyes of Examples 1 and 3 and 6-methoxy-14H-anthra(2,1,9-mna)thioxanthene-14-one in a clear vehicle solution of 64.8 parts Dowanol DPMA and 38.2 parts Paraloid B66.
The fluorescent dye solutions were coated on Scotchlite 3970 reflective sheeting using a #16 wire wound bar. The coating was air dried for 5 minutes and then dried in a 120° C. oven for 45 minutes. Color values were measured as described in Examples 8-10 and the results set out in TABLE V.

[6] = dye 0.2 wt-% in PMMA CP923, 0.1 mm film on Scotchlite 3970
[7] = dye 0.38 wt-% in PMMA CP923, 0.1 mm film on Scotchlite 3970
[8] = dye 1.27 wt-% in PMMA CP923, 0.1 mm film on Scotchlite 3970
[9] = 0.10 parts dye in 64.8 parts Dowanol DPMA and 38.2 parts Paraloid B66, coated on Scotchlite 3970 with #16 wire wound bar, dried

SMILES: CCCCCCCCOc1cc2c3ccccc3c(=O)c3ccc4c5ccccc5sc1c4c32 [Example 1, 6-n-Octyloxy-14H-anthra(2,1,9mna)thioxanthene-14-one]
- YF (fluorescence luminance factor) [1]: 14.6
- YT (total luminance factor) [1]: 32.87
- x (daytime chromaticity) [1]: 0.5232
- y (daytime chromaticity) [1]: 0.3132
- fluorescence relative to articles with the 6-methoxy dye ([2]; PMMA films, equal molar loadings of dye, by fluorescence luminance factor): higher fluorescence
- X (daytime chromaticity) [2, 6]: 0.5210
- YF (fluorescence luminance factor) [2, 6]: 16.83
- YT (total luminance factor) [2, 6]: 30.85
- y (daytime chromaticity) [2, 6]: 0.3252
- X (daytime chromaticity) [2, 7]: 0.5923
- YF (fluorescence luminance factor) [2, 7]: 13.74
- YT (total luminance factor) [2, 7]: 19.96
- y (daytime chromaticity) [2, 7]: 0.3022
- X (daytime chromaticity) [2, 8]: 0.6305
- YF (fluorescence luminance factor) [2, 8]: 4.97
- YT (total luminance factor) [2, 8]: 7.80
- y (daytime chromaticity) [2, 8]: 0.3008
- visual inspection of film for undissolved dye ([2]; extruded PMMA CP923 film 0.1 mm, 6-methoxy dye at 1 wt.-%, dyes of Examples 1-2 at up to 1.27 wt-%): uniform appearance with no undissolved dye seen
- Y (daytime chromaticity) [3]: 0.2762
- YF (fluorescence luminance factor) [3]: 12.31
- YT (total luminance factor) [3]: 23.82
- x (daytime chromaticity) [3]: 0.5149
- X (daytime chromaticity) [4]: 0.5739
- YF (fluorescence luminance factor) [4]: 11.83
- YT (total luminance factor) [4]: 17.46
- y (daytime chromaticity) [4]: 0.2692
- YF (fluorescence luminance factor) [5, 9]: 11.09
- YT (total luminance factor) [5, 9]: 30.10
- x (daytime chromaticity) [5, 9]: 0.4381
- y (daytime chromaticity) [5, 9]: 0.2980
- appearance of coated article ([5]; dye in Paraloid B66 coating on Scotchlite 3970): bright fluorescent pink appearance
